Earlier results in patent US12516015B2 (AMALIVE LIMITED, priority 2009, dated 2026).

SMILES: O=C(O)Cc1ccccc1 [phenyl acetic acid]
- pKa: ~4.28
